What was measured:
[1] = system: tubulin; experiment: tubulin assembly assay; format: biochemical; details: read-out: Inhibition of Tubulin Assembly IC50±SD; enantiopure analogues
[2] = system: tubulin; details: previous finding; ref 5a; cited from earlier work
[3] = system: tubulin; experiment: inhibition of colchicine binding; details: 5 μM inhibitor; enantiopure analogues
[4] = system: NCI-60; experiment: NCI 60-cell screen; format: cell-based; details: read-out: NCI-60 Mean GI50; mean over NCI-60 panel; enantiopure analogues

For (+)-chamaecypanone C [(+)-2], the IC50 [1] is given as 2200 ± 300 nM, the “activity of chamaecypanone C enantiomers (in words)” value [2] is given as “active” and the “% Inhibition of Colchicine Binding ± SD” value [3] is given as 30±4.0%. It also gave a GI50 [4] of 280 nM.

From article PMC3542833 (Journal of the American Chemical Society, 2012)
